Assay results taken from patent US20230165874A1, “ANTICOAGULANT COMPOUNDS AND METHODS AND DEVICES FOR THEIR PULMONARY USE” (priority 2020, published 2023).
Converted amounts (≈) assume the structure as drawn. Where a name gives a salt, the structure may show the parent alone.

Legend:
[1] = system: Calcium-reconstituted sheep blood; experiment: Activated clotting time (ACT), Hemochron Response; format: biochemical; settings: individual drug at 0.6 ng/mg
Protocol: The activated clotting time (ACT) evaluation of anticoagulants was performed in Calcium-reconstituted sheep blood and recorded employing the Hemochron® Response device. […] A target amount of drug solution was then added into the test tube. […] The tube was gently shaken before being inserted into the Hemochron Response detector. The ACT read out was recorded and reported. The ACT of the control blood in the absence of any drug as first determined to establish a baseline. Then ACT was determined in the presence of different concentrations of the drug as a single component. Selected drug combinations, were then tested to evaluate for potential synergy in action between the two drugs.

in vivo [2] = experiment: in vivo; set-up: species or system Sprague-Dawley rats; settings: male, Sprague-Dawley, rat; for Tmax: inhaled or intranasal
Protocol: At their assigned time-point, rats were anesthetized and subjected to exsanguination via an abdominal vessel and gross necropsy. Whole blood (two ˜1.5 ml aliquots, K2EDTA) was collected. The whole blood was stored frozen at −60° C. or lower until shipped overnight with dry ice for further evaluation.
Whole blood (two ˜100 μL aliquots, K2EDTA) was collected from the catheter of conscious rats for systemic pharmacokinetics (PK) at the time-points. Whole blood samples were stored at −60° C. or lower until shipped overnight on dry ice for further evaluation.

[3] = set-up: species or system Sprague-Dawley rats; settings: male, Sprague-Dawley, rat, in vivo
Protocol: The lungs were removed and divided into left and right lung. Each half of the lung was weighed and placed in separate vials (for Pharmacokinetics analysis), snap frozen in liquid nitrogen and stored frozen at −60° C. or lower until shipped overnight on dry ice for further evaluation.
Each half of the lung was weighed and placed in separate vials (for Pharmacokinetics analysis), snap frozen in liquid nitrogen and stored frozen at −60° C. or lower until shipped overnight on dry ice to the sponsor for further evaluation.

[4] = Solubility in water / aqueous buffer / Captisol
porcine coronary artery [5] = experiment: Histopathology scores (fibrin, injury, inflammation) of stented porcine coronary arteries; settings: for inhibiting fibrin formation compared to bare metal control stents: at 7 days, released from stents
porcine coronary artery [6] = experiment: Quantitative coronary angiography (late lumen loss, diameter stenosis) after stent implantation; settings: at 7 days, released from stents
[7] = Coated balloon tissue drug concentration in vivo (LCMS); set-up: species or system porcine; settings: pig, 300 μg
Excerpt: The balloon (e.g., the balloon of a balloon-catheter of a stent-delivery system) was advanced to a site to be treated (e.g., an occluded or weakened section of a blood vessel to be opened up or supported by a stent) in the body of a subject and inflated to a desired inflation diameter. Before, during, and/or after inflation of the balloon, the balloon released the therapeutic composition to, into, or at the treatment site, or to, into, or at an area adjacent thereto, by any suitable mechanism (e.g., concentration gradient, diffusion, pressure, or mechanical force, or a combination thereof). […] The tissue concentration is shown in ng/mg tissue. The coated balloons were evaluated for drug delivery efficiency in an animal study. Drug transfer of the coated balloons into arterial segments were evaluated using harvested pig arteries. The arterial wall was separated after animal study. The arterial walls were then stored in an individual labeled vial. All samples were kept on dry ice until stored in the −80° C. freezer. All samples were then frozen to […] prior to being analyzed.

in vivo [8] = settings: pig, whole blood
[9] = Whole blood PK of drug eluting stents; settings: for concentration at 180 min: 180 min. (3 hr); for concentration at 60 min: 60 min. (1 hr); for concentration at 120 min: 120 min. (2 hr)
[10] = pig, whole blood, other: drug eluting stent implanted in coronary artery, Whole blood concentration, SS16 stents, 1 H group
[11] = pig, whole blood, other: drug eluting stents implanted in coronary arteries, Whole blood concentration, SS16 stents, 1 D group
[12] = pig, whole blood, other: drug eluting stents implanted in coronary arteries, Whole blood concentration, SS17 stents, 1 D group
[13] = pig, whole blood, other: drug eluting stents implanted in coronary arteries, Whole blood concentration, SS17 stents, 1 H group

Which ACT [1] does the source give for `COc1ccc(-n2nc(C(N)=O)c3c2C(=O)N(c2ccc(N4CCCCC4=O)cc2)CC3)cc1` [Apixaban] here?
Its ACT is 522.

And the Tmax (in vivo [2])?
The Tmax was 5 to 10 min.

What about the “time the drug content in lung tissue lasted” value [3] of the same compound?
Its value is “up to 3.5 hours”.

And the “time the drug content in lungs tissue lasted” value [3]?
Its value is “up to 1 hours”.

What about the solubility ([4]; aqueous buffer, solubility in aqueous buffers, drug alone) of the same compound?
Its solubility is about 28 µg/mL (≈ 60.9 µM).

What about the solubility ([4]; water, solubility in water) of the same compound?
Its solubility is about 28 µg/mL (≈ 60.9 µM).

Which “inhibiting fibrin formation compared to bare metal control stents” value (porcine coronary artery [5]) does the source give for Dalteparin here?
Its value is “not more effective”.

What about the “inhibiting smooth muscle cell proliferation (LLL) compared to bare metal control stents” value (porcine coronary artery [6]) of the same compound?
The value was “not more effective”.

Which “time the systemic drug in whole blood lasted” value (in vivo [2]) does the source give for `CCN(CCO)CCCC(C)Nc1ccnc2cc(Cl)ccc12` (centres unmarked) [Hydroxychloroquine, Hydroxychloroquine sulfate] here?
The value was “more than 5 hours”.

What about the “time the drug content in lungs tissue lasted” value [3] of the same compound?
The value was “more than 5 hours”.

Which results are given for `O=C(NC[C@H]1CN(c2ccc(N3CCOCC3=O)cc2)C(=O)O1)c1ccc(Cl)s1` [Rivaroxaban]?
concentration at 15 min ([7]; coronary artery wall): 1230 ± 370 ng/g; concentration at 15 min ([7]; superficial femoral artery wall): 40600 ± 64700 ng/g; concentration at 15 min (in vivo [8]; other: drug eluting stent implanted in coronary artery): 3.32 ng/mL; concentration at 150 min (in vivo [8]; other: drug eluting stents implanted in coronary arteries): 2.08 ng/mL; Whole blood concentration ([9]; SS16 stents, 1 D group, 24 hr (Day 1)): BQL; Whole blood concentration ([9]; SS16 stents, 1 D group, Pre-implant): BQL; Whole blood concentration ([9]; SS16 stents, 1 H group, Pre-implant): BQL; Whole blood concentration ([9]; SS16 stents, 7 D group, Day 7): BQL; Whole blood concentration ([9]; SS16 stents, 7 D group, Pre-implant): BQL; Whole blood concentration ([9]; SS16 stents, 28 D group, Day 28): BQL; Whole blood concentration ([9]; SS16 stents, 28 D group, Pre-implant): BQL; Whole blood concentration ([9]; SS17 stents, 1 D group, Pre-implant): BQL; Whole blood concentration ([9]; SS17 stents, 1 H group, Pre-implant): BQL; Whole blood concentration ([9]; SS17 stents, 7 D group, Day 7): BQL; Whole blood concentration ([9]; SS17 stents, 7 D group, Pre-implant): BQL; Whole blood concentration ([9]; SS17 stents, 28 D group, Day 28): BQL; Whole blood concentration ([9]; SS17 stents, 28 D group, Pre-implant): BQL; systemic blood concentration versus systemic therapeutic concentrations (Cmax, Cmean, Ctrough) ([9]; drug eluting stents SS15, SS16, SS17): below; concentration at 30 min ([9]; pig, whole blood, other: drug eluting stent implanted in coronary artery, Whole blood concentration, SS16 stents, 1 D group): 3.76 ng/mL; concentration at 30 min [9, 10]: 3.34 ng/mL; concentration at 45 min [9, 10]: 3.68 ng/mL; concentration at 180 min ([9]; pig, whole blood, other: drug eluting stent implanted in coronary artery, Whole blood concentration, SS17 stents, 1 D group): 8.39 ng/mL; concentration at 4 h ([9]; pig, whole blood, other: drug eluting stent implanted in coronary artery, Whole blood concentration, SS17 stents, 1 D group, 4 hr): 3.74 ng/mL; concentration at 5 h ([9]; pig, whole blood, other: drug eluting stent implanted in coronary artery, Whole blood concentration, SS17 stents, 1 D group, 5 hr): 3.9 ng/mL; concentration at 6 h ([9]; pig, whole blood, other: drug eluting stent implanted in coronary artery, Whole blood concentration, SS17 stents, 1 D group, 6 hr): 3.1 ng/mL; concentration at 24 h ([9]; pig, whole blood, other: drug eluting stent implanted in coronary artery, Whole blood concentration, SS17 stents, 1 D group, 24 hr (Day 1)): 0.16 ng/mL; concentration at 45 min [9, 11]: 3.47 ng/mL; concentration at 60 min [9, 11]: 2.61 ng/mL; concentration at 90 min [9, 11]: 2.43 ng/mL; concentration at 120 min [9, 11]: 2.3 ng/mL; concentration at 180 min [9, 11]: 1.95 ng/mL; concentration at 4 hr ([9]; pig, whole blood, other: drug eluting stents implanted in coronary arteries, Whole blood concentration, SS16 stents, 1 D group, 4 hr): 1.23 ng/mL; concentration at 5 hr ([9]; pig, whole blood, other: drug eluting stents implanted in coronary arteries, Whole blood concentration, SS16 stents, 1 D group, 5 hr): 1.11 ng/mL; concentration at 6 hr ([9]; pig, whole blood, other: drug eluting stents implanted in coronary arteries, Whole blood concentration, SS16 stents, 1 D group, 6 hr): 1.03 ng/mL; concentration at 60 min ([9]; pig, whole blood, other: drug eluting stents implanted in coronary arteries, Whole blood concentration, SS16 stents, 1 H group): 4.08 ng/mL; concentration at 15 min [9, 12]: 24 ng/mL; concentration at 30 min [9, 12]: 20.1 ng/mL; concentration at 45 min [9, 12]: 19.5 ng/mL; concentration at 60 min [9, 12]: 18.5 ng/mL; concentration at 90 min [9, 12]: 15 ng/mL; concentration at 120 min [9, 12]: 11.6 ng/mL; concentration at 150 min ([9]; pig, whole blood, other: drug eluting stents implanted in coronary arteries, Whole blood concentration, SS17 stents, 1 D group, 150 min.): 11.3 ng/mL; concentration at 15 min [9, 13]: 10.8 ng/mL; concentration at 30 min [9, 13]: 8.44 ng/mL; concentration at 45 min [9, 13]: 7.82 ng/mL; concentration at 60 min [9, 13]: 7.54 ng/mL; inhibiting fibrin formation compared to control (porcine coronary artery [5]; at 7 days and/or at 28 days, faster release formulation): more effective; inhibiting fibrin formation compared to bare metal control stents (porcine coronary artery [5]): more effective; inhibiting smooth muscle cell proliferation (LLL) compared to bare metal control stents (porcine coronary artery [6]): not more effective

Which results are given for `CN1CCCC(n2nc(Cc3ccc(Cl)cc3)c3ccccc3c2=O)CC1` (centres unmarked) [Azelastine, Azelastine hydrochloride]?
time the systemic drug in whole blood lasted (in vivo [2]): up to 2 hours; time the drug content in lungs tissue lasted [3]: more than 5 hours

Which ACT [1] does the source give for `CC1CNc2c(cccc2S(=O)(=O)N[C@@H](CCCNC(=N)N)C(=O)N2CC[C@@H](C)C[C@@H]2C(=O)O)C1` (some centres unmarked) [Argatroban] here?
Its ACT is 301.

What about the Tmax (in vivo [2]) of the same compound?
The Tmax was about 60 min.

And the “time the drug content in lung tissue lasted” value [3]?
The value was “more than 6 hours”.

And the “time the drug content in lungs tissue lasted” value [3]?
The value was “more than 5 hours”.

And the solubility (physchem; aqueous buffer, solubility in aqueous buffers)?
Its solubility is about 3000 µg/mL (≈ 5900 µM).

What about the solubility (physchem; water, solubility in water) of the same compound?
Its solubility is about 3000 µg/mL (≈ 5900 µM).

And the “inhibiting fibrin formation compared to bare metal control stents” value (porcine coronary artery [5])?
Its value is “not more effective”.
